Test results taken from paper PMC7613515, “Reading and erasing of the phosphonium analogue of trimethyllysine by epigenetic proteins” (Communications Chemistry, 2022).

What was measured:
[1] = molecular target: T1, KDM4ATTD (JMJD2A, Q897-P1011) (Homo sapiens, UniProt O75164); experiment: ITC, association of histone H3 peptides with KDM4ATTD; assay type: binding
T1 construct: KDM4ATTD (JMJD2A, Q897-P1011); made in house; host or cells: E. coli
T1 sequence (O75164 897-1011): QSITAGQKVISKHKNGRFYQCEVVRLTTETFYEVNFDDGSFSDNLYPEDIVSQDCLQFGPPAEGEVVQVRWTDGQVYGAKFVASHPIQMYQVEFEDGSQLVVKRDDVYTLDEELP
Source text: We investigated the thermodynamics of association of the H3KP4me3 peptide with five representative human reader domains containing either a PHD zinc finger or TTD, i.e. KDM5APHD3 (JARID1A-PHD3, residues M1489–V1641)[10], TAF3PHD (R857–K924)[22], BPTFPHD (L2583–N2751)[23], SGF29TTD (R115–K293)[24] and KDM4ATTD (JMJD2A, Q897-P1011)[25], selected on the basis of their preference for binding Ν^ε-trimethyllysine over other (non)methylation marks (Kme0 < Kme1 < Kme2 < Kme3), and their domain and aromatic cage diversity. The recombinant readers were produced in E. coli following reported procedures. Isothermal titration calorimetric (ITC) analyses were used to determine the dissociation constant (Kd), the Gibbs free energy of binding (ΔG°), the enthalpy of binding (ΔH°), and the entropy of binding (ΔS°). […] (Table 1, Fig. 2, Supplementary Fig. 1).
The following purified reader domains: TAF3PHD (R857-K924), KDM5APHD3 (JARID1A, M1489-V1641), BPTFPHD (L2583-N2751), KDM4ATTD (JMJD2A, Q897-P1011) and SGF29TTD (R115-K293) were prepared as reported[10],[22]–[26]. The histone lysine demethylase were produced and purified to high purity via reported procedures KDM3A (JMJD1A, T515-S1317)[41], KDM4AJmjC[39] (JMJD2A, M1-L359), KDM4EJmjC (JMJD2E, M1–Q337)[34] and KDM7B[40] (PHF8, M37-N483 [NP_001171]). KDM5DJmjC was produced using an N-terminal hexa-His tagged KDM4D (KDM4DM1-L358) DNA construct, transformed into BL21(DE3) competent cells for recombinant protein production. Colonies were used to inoculate of LB media (50 mL) containing kanamycin (50 µg·mL^−1) and chloramphenicol (34 µg·mL^−1), which was placed in a 37 °C shaker overnight. The starter culture (10 mL) was used to inoculate TB media (6 × 1 L) containing kanamycin (50 µg·mL^−1) in 2 L baffled shaker flasks. After reaching an of OD600 of ~0.8, the temperature was reduced to 18 °C; at OD600 ~0.9 the cells were induced by the IPTG (0.5 mM) addition. After shaking overnight, the culture was centrifuged (5000 rpm, 10 mins), the media was decanted, and the cell pellet was suspended in Lysis Buffer [HEPES (50 mM), NaCl (500 mM), imidazole (20 mM), glycerol (5%) and TCEP (0.5 mM) in water (pH 7.4)]. The suspension was lysed by passaging through a high-pressure cell breaker (Avestin – EmulsiFlex-C5) for three rounds. The lysate was cleared by centrifugation (60 minutes, 36,000 × g, 4 °C), then loaded onto a Ni NTA gravity column. After extensive rinsing of the Ni-NTA gravity column with lysis buffer, the His-tagged protein was eluted in lysis buffer containing 300 mM imidazole. The eluted protein was concentrated and subjected to gel filtration chromatography using an AKTA Xpress system, an S200 16/600 gel filtration column, and GF buffer [HEPES (50 mM), NaCl (150 mM), glycerol (5%) and TCEP (0.5 mM) in water (pH 7.4)]. The protein identity was verified by LC-MS (ESI-TOF) observing a mass of 43759.7 Da, in accord with the predicted mass of 43751.6 Da.
ITC studies followed a reported procedure. The buffer used corresponded to that used in the final protein purification step. Briefly, TAF3PHD and KDM4ATTD: [Tris (50 mM) in water (pH 7.5)]; KDM5APHD3 and BTPFPHD: [Tris (50 mM), NaCl (20 mM) in water (pH 7.5)]; [Tris (25 mM), NaCl (50 mM), 1,4-dithiothreitol (1.0 mM) in water (pH 7.5)]. Experiments were conducted using ITC200 automated (GE Healthcare Life Sciences, USA) instrument at 25 °C. Histone peptide titrations were performed with the same reader batches. Solutions of the reader in buffer (25–40 µM) and of the histone H3 peptide (350–600 µM) in buffer were prepared. The prepared solutions were plated into a 96-well plate and inserted into the instrument for analysis. Experiments were performed according to manufacturer’s default settings: Plate pre-rinse syringe clean. A total of 19 injections were performed; each experiment was repeated 3–5 times. Heats of dilution for histone peptides determined in control experiments were subtracted from the titration binding data. […]

[2] = cited from earlier work
Source text: Some JmjC KDMs can also catalyse N-methyl arginine demethylation and with appropriately sized N^ε-substitutions some can catalyse forma ...

KDM4DJmjC (M1–L358) = experiment: MALDI-TOF demethylation assay, KDM4DJmjC; assay type: biochemical, human; settings: KDM4DJmjC 2.4 µM, peptide 5.0 µM, 1 hr, duplicates
Method: A Bruker Daltonics MALDI-TOF/TOF AutoflexSpeed machine and Bruker MTP 384 target plates (polished steel BC, Part: 8280781) were used. The machine was controlled using Flex control (v. 3.4 build 135.10) and Compass for flex series (v. 1.4) software. Measurements were in the positive ion mode with the reflectron mode enabled. Incubations employed ProxiPlate-384™ (Perkin Elmer) plates into which was pipetted a solution of [H3_1-15K9me3 (10.0 µM), (+)-sodium L-ascorbate (1.0 mM), (NH4)2Fe(II)(SO4)2 (100 µM), di-sodium 2-oxoglutarate (200 µM) in buffer (HEPES (50 mM)) in MilliQ (pH 7.5)] (5.0 µL) using ClipTip™ (Thermo Scientific™) pipette tips and E1-ClipTip™ (Thermo Scientific™). The enzyme solution [KDM4EJmjC (1.0 µM) in HEPES (50 mM)] (5.0 µL) was added to initiate reaction at 37 °C. Reactions were quenched with formic acid in water (2%, 5.0 µL).

[3] = 25 °C, H3 1-10 peptide, Tris (50 mM), pH 7.5, from 3 to 5 experiments, ± SD

| Compound | -TΔS° [1, 3] | ΔG° [1, 3] | ΔH° [1, 3] | fold stronger binding (ΔKd), H3KP4me3 versus H3K4me3 ([1]; KDM4ATTD) | ΔΔH°, H3KP4me3 relative to H3K4me3 ([1]; KDM4ATTD) | bond length (C-P or C-N) ([2]; C-P bond in H3KP4me3, C-N bond in H3K4me3) | demethylation (KDM4DJmjC (M1–L358)) | volume difference Δ[^+Pme4-^+Nme4] ([2]; H3KP9me3 compared to H3K9me3) |
| --- | --- | --- | --- | --- | --- | --- | --- | --- |
| C[C@H](N)C(=O)N[C@@H](CCCNC(=N)N)C(=O)N[C@H](C(=O)N[C@@H](CCCC[P+](C)(C)C)C(=O)N[C@@H](CCC(N)=O)C(=O)N[C@H](C(=O)N[C@@H](C)C(=O)N[C@@H](CCCNC(=N)N)C(=O)N[C@@H](CCCCN)C(=O)N[C@@H](CO)C(N)=O)[C@@H](C)O)[C@@H](C)O [H3KP4me3] | 8.8 ± 0.1 kcal/mol | -8.9 ± 0.1 kcal/mol | -17.7 ± 0.1 kcal/mol | ~ 12 fold | -4.7 kcal/mol | 1.87 Å |  |  |
| ARTKQTAR(KPme3)STGGKA [H3KP9me3, histone H3 residues 1–15 with trimethylphosphonium lysine analogue at position 9] |  |  |  |  |  |  | substantial turnover to H3KP9me2 | 10 Å^3 |
